Measured values taken from ChEMBL document CHEMBL1130595, “New generation dopaminergic agents. 5. Heterocyclic bioisosteres that exploit the 3-OH-N1-phenylpiperazine dopaminergic template” (Bioorg Med Chem Lett, 1998).

Key:
[1] = target: T1, D(2) dopamine receptor (Homo sapiens, UniProt P14416); assay: Affinity towards human Dopamine receptor D2 expressed in CHO cells using [3H]spiperone; type: cell-based
[2] = target: T2, D(4) dopamine receptor (Homo sapiens, UniProt P21917); assay: Affinity towards human Dopamine receptor D4.4 expressed in CHO cells using [3H]spiperone; type: cell-based
T2 sequence (P21917 whole entry): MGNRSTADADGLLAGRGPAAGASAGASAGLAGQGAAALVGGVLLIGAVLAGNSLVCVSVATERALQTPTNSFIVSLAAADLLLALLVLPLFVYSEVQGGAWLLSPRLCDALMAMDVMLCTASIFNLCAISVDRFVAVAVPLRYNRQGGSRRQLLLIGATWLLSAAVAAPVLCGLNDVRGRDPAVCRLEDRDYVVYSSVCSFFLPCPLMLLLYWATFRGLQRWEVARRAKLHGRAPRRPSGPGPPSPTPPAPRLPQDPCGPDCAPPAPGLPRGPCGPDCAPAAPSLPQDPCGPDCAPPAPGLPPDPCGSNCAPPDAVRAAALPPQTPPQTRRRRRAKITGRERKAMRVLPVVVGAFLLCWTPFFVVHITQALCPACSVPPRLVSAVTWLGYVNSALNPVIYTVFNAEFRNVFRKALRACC

[3] = target: D(3) dopamine receptor (Homo sapiens, UniProt P35462); assay: Affinity towards human Dopamine receptor D3 expressed in CHO cells using [3H]spiperone; type: cell-based
[4] = target: T1, D(2) dopamine receptor; assay: Ratio of the affinity against D2 receptor at low antagonist state to that of D2 receptor at high agonist state; type: functional
[5] = target: T3, D(2) dopamine receptor (Rattus norvegicus, UniProt P61169)
Description: Affinity for Dopamine receptor D2 in rat striatal membranes for high agonist state using [3H]quinpirole

[6] = target: T3, D(2) dopamine receptor; remark: listed apart in the source
Description: Affinity of compound for the Dopamine receptor D2 in rat striatal membranes was determined for low antagonist state in rat striatal membranes using [3H]spiperone

[7] = target: T3, D(2) dopamine receptor; assay: Affinity of compound for the D2 receptors in rat striatal membranes was determined for low antagonist state in rat striatal membranes using [3H]spiperone; type: functional, cell membranes, Membrane
[8] = target: T3, D(2) dopamine receptor; assay: Affinity of compound for the Dopamine receptor D2 in rat striatal membranes was determined for […] in rat striatal membranes using [3H]spiperone; type: functional, cell membranes, Membrane

T3 sequence (P61169 whole entry): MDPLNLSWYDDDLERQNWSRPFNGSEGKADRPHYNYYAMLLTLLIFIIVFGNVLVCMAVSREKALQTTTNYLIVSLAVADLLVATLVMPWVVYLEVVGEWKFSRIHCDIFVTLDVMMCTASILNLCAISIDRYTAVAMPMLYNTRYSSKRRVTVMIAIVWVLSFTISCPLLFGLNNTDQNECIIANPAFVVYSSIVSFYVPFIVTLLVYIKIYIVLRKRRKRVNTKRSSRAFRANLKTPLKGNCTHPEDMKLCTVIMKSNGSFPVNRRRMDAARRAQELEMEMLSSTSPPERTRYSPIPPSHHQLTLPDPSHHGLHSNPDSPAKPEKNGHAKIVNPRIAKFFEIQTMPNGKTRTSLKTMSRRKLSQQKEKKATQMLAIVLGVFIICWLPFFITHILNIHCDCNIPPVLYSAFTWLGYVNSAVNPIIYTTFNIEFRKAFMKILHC
D(3) dopamine receptor, sequence (P35462 whole entry): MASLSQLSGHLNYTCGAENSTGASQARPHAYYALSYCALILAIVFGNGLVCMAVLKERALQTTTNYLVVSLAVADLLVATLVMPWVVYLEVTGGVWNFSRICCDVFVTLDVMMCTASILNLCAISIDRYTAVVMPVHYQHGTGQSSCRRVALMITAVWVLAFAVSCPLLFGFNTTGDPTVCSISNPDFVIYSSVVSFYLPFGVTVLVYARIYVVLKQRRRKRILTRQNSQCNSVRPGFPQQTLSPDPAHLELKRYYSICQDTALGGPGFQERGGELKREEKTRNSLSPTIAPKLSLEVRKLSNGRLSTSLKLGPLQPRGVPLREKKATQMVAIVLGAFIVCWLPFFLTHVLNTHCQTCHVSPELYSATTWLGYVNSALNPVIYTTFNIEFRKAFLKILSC
T1 sequence (P14416 whole entry): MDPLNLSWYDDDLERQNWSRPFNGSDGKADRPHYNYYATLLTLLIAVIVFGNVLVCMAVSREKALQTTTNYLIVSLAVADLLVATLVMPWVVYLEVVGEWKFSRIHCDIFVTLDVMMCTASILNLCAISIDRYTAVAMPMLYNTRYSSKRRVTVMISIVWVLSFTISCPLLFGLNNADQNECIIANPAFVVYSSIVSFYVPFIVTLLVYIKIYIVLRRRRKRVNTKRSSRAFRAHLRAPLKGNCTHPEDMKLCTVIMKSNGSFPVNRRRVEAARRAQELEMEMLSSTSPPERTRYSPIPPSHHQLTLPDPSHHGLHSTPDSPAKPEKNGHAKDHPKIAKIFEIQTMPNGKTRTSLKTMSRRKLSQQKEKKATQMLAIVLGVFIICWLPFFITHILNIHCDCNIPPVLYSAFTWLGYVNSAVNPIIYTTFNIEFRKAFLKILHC

Ki [2] [µM] | Ki [3] [µM] | Ki [7] [µM] | SMILES | Ki [1] [µM] | Ratio [4] | Ki [5] [µM] | Ki [6] [µM] | Ki [8] [µM]
0.0017 | 0.0953 | 0.0423 | Clc1ccc2[nH]ccc2c1N1CCN(Cc2ccccc2)CC1 | 0.0813 | 5 | 0.0091 | – | –
0.0147 | 0.0354 | – | c1ccc(CN2CCN(c3cccc4[nH]ccc34)CC2)cc1 | – | – | – | – | –
0.047 | 0.87 | – | c1ccc(CN2CCN(c3cccc4[nH]cnc34)CC2)cc1 | 0.258 | 11 | 0.0097 | 0.107 | –
0.0088 | 0.591 | – | O=C1Cc2c(ccc(Cl)c2N2CCN(Cc3ccccc3)CC2)N1 | 0.54 | 7 | 0.0848 | 0.403 | –
0.0144 | 0.0565 | – | O=c1[nH]c2cccc(N3CCN(Cc4ccccc4)CC3)c2[nH]1 | – | – | – | – | –

SMILES | Ki [2] [µM] | Ki [3] [µM] | Ki [7] [µM] | Ki [1] [µM] | Ratio [4] | Ki [5] [µM] | Ki [6] [µM] | Ki [8] [µM]
O=C1Cc2c(cccc2N2CCN(Cc3ccccc3)CC2)N1 | 0.003 | 0.0054 | – | 0.008 | 14 | 0.00056 | 0.0081 | –
FC(F)(F)c1nc2c(N3CCN(Cc4ccccc4)CC3)cccc2[nH]1 | 0.0029 | 0.0147 | – | 0.0041 | 6 | 0.00051 | – | 0.0033
Brc1ccc(N2CCN(Cc3ccccc3)CC2)c2cc[nH]c12 | 0.0026 | 0.056 | – | 0.047 | 0.5 | 0.0268 | 0.0122 | –
